Test results from patent US20240417428A1, “POLYPEPTIDE FOR INHIBITING TRPM8 AND USE THEREOF” (ZHEJIANG UNIVERSITY, priority 2021, published 2024).
Entries after “also recorded” stand apart in the source; their conditions may differ. Where a SMILES comes first, the peptide text is derived from it.

Assays:
TRPM8 = TRPM8 (Mus musculus, UniProt Q8R4D5); test: Calcium imaging of primary cultured DRG neurons from oxaliplatin-treated mice; format: cell-based; design: endogenous in cells; host or cells: primary cultured dorsal root ganglion neurons from saline- or oxaliplatin-treated mice; conditions: 10 μM DeC-1.2, DRG neurons of oxaliplatin treated mice
Protocol: Mice was deeply anaesthetized, decapitated and blood was removed, DRG tissue was dissected off quickly and placed in ice-cold PBS solution. After washing the blood, digestive enzyme (Collagenase A 20 mg/100 ml, Dispase II 300 mg/100 ml dissolved in PBS) was added and DRG was digested at 37° C. for 1 hour. The samples were centrifuged at 500 g for 5 min and the digested tissue was collected. When the enzyme solution was removed, an appropriate amount of DMEM medium (containing 10% FBS, 1× Pen/Strep) was added, and the single cell suspension was prepared by mechanical trituration. The samples were centrifuged at 500 g for 10 min. […]
The primary-cultured DRG neurons were washed with a extracellular solution (ECS, 140 mM NaCl, 5 mM KCl, 1 mM MgCl2, 1.8 mM CaCl2), 10 mM Glucose, 15 mM HEPES, pH=7.4) then incubated in calcium dye incubation solution (2 μM […], 0.05% Pluronic F-127 in ECS) for 30 min. The cell images were continuously and alternately excited by a high-speed continuous monochromatic light source under the excitation wavelength of 340 nm and 380 nm, and recorded in full vision under 20× object lens by Visiview software Intracellular fluorescence intensity changes were continuously recorded at 0.5 fps via a high-speed scanning camera Flash4.0LT. The ratio of fluorescence signal at 340 nm/380 nm represents the intensity of calcium signal. […]

TRPV1 = molecular target: T1, TRPV1 (Homo sapiens, UniProt Q8NER1); test: Electrophysiological recording, ligand activation of TRPV1; format: cell-based
T1 construct: expressed in transfected cells; host or cells: HEK293T
Protocol: HEK293T cells were cultured in Dulbecco's modified Eagle culture medium under a 37° C., 5% CO2 environment, 10% fetal bovine serum, penicillin (100 U/mL), and streptomycin ([…]) was needed to add into the culture medium. Transient transfection was conducted by using Lipo 2000 (Invitrogen) transfection kit and following the instruction manual.
Electrophysiological experiment recordings were performed on the cells within 24˜48 h of transient transfections. Specifically, single channel electrophysiological recordings were performed within 8 h after transfection.
Measurement of the cell currents was respectively performed in the whole-cell recording mode, inside-out recording mode or outside-out recording mode with a HEKA EPC10 amplifier. In the whole cell electrophysiological recordings, glass microelectrodes made of borosilicate material were fire-polished to a original electrode resistance of about 3-6 MΩ. Serial resistance was compensated by 60%. The whole cell electrophysiological recordings were performed at ±80 mV. For single channel electrophysiological recordings, glass microelectrodes were fire-polished to a higher resistance of 6-8 MΩ2. Current signal was sampled at 10 kHz and filtered at 2.9 kHz. Membrane potential of the cell membrane would be clamped at +80 mV. All electrophysiological recordings were performed at room temperature (22° C.) (the maximum variation is 1° C.). […]

[1] = system: Icilin-induced wet-dog shake behavior; test: Icilin-induced wet-dog shake test; format: in vivo, mice
Protocol: Adult male CD1 mice (6-8 weeks old) were used as experimental animals for behavioral experiments and primary cultures of DRG neurons. Mice were raised in the condition of 12 h light/12 h dark of light cycle with adequate standard chow and water. All animal protocols were approved by the Institutional Animal Care and Use Committee (IACUC) of Zhejiang University.
At least 6 adult male CD1 mice were prepared for experimental or control groups. The animals were pretreated with Vehicle or DeC-1.2 of gradient dose via intravenous injection (i.v.) at 30 min before icilin (intraperitoneal injection, i.p., 2.5 μg/g body weight) treatment. Wet dog shake behavior was recorded and counted for 30 min following icilin administration.

T1 sequence (Q8NER1 whole entry, species assumed): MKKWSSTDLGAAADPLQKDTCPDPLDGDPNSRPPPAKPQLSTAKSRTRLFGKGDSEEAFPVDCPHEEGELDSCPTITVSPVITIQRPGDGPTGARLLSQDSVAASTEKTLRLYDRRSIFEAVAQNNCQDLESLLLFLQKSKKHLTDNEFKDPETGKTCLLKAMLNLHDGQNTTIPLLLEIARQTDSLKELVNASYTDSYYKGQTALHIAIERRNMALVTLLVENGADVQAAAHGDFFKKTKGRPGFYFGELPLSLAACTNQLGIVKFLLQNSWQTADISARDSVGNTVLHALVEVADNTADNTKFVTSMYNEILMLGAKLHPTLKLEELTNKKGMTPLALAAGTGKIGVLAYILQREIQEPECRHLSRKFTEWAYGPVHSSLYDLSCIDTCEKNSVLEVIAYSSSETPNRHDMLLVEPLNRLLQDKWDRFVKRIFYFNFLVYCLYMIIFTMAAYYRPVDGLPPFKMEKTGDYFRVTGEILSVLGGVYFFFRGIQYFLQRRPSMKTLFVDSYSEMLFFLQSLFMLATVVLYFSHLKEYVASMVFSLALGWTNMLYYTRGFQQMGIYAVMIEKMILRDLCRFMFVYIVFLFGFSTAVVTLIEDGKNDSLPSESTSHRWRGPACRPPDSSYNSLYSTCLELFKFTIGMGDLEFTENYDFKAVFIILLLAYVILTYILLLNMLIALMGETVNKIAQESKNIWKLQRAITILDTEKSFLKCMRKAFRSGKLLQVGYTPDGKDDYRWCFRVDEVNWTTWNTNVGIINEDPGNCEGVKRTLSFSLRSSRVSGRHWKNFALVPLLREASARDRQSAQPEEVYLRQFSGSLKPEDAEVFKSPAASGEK
TRPM8, sequence (Q8R4D5 whole entry): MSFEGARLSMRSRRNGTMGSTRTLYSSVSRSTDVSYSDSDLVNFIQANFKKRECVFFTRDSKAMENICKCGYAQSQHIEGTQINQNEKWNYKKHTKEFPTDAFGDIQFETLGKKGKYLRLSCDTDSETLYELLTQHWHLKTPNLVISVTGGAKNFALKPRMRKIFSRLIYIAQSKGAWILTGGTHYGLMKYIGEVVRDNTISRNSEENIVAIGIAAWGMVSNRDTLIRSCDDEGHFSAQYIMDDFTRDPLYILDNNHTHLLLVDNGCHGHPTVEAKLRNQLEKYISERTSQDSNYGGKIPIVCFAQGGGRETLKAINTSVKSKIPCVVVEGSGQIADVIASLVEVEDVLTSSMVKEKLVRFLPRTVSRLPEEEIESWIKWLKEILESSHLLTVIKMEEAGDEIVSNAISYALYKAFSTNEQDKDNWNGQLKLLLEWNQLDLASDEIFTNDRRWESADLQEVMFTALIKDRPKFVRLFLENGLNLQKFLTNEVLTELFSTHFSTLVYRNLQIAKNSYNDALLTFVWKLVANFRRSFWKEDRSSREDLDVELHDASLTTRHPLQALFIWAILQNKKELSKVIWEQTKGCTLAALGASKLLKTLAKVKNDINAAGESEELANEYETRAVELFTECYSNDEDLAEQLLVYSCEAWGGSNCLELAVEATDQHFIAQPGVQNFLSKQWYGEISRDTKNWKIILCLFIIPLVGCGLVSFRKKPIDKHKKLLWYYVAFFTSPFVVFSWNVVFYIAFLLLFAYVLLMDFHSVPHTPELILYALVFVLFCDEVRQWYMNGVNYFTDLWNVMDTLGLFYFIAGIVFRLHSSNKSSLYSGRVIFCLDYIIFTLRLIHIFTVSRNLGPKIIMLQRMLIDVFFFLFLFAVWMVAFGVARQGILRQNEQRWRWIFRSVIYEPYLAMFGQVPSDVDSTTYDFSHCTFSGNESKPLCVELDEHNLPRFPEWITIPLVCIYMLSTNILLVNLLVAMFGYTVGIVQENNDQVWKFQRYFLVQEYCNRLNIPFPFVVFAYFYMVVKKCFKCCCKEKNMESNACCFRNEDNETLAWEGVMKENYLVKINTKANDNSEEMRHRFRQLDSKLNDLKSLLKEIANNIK

## C[C@@H]1NC(=O)[C@H](CCCNC(=N)N)NC(=O)[C@H](CC(=O)O)NC(=O)[C@H](CCCNC(=N)N)NC(=O)[C@H](CCCNC(=N)N)NC(=O)[C@@H](N)CSSC[C@@H](C(=O)O)NC(=O)[C@H](CCCNC(=N)N)NC(=O)[C@H](CCC(N)=O)NC(=O)[C@H](CCCNC(=N)N)NC(=O)[C@H](Cc2ccc(O)cc2)NC(=O)[C@H](Cc2c[nH]cn2)NC(=O)[C@H](CCCNC(=N)N)NC1=O [DeC-1.2, CRRDRARHYRQRC] (HELM PEPTIDE1{C.R.R.D.R.A.R.H.Y.R.Q.R.C}$PEPTIDE1,PEPTIDE1,1:R3-13:R3$$$V2.0; N-terminus and C-terminus assumed)
TRPM8
  amplitude of calcium influx induced by menthol: significantly inhibit
  percentage of positive reaction cells in response to menthol: significantly inhibit
TRPV1
  IC50: > 100 µM
TRPV1; DeC-1.2 5 μM
  inhibition of ligand activation of TRPV1: failed to inhibit
[1]; 0.3 μg/g body weight i.v., 30 min before icilin
  inhibition of WSD behaviors induced by icilin: significantly inhibit
[1]; 30 μg/g body weight i.v.
  reduction of WDS behavior in icilin treated mice: largely reduce WDS behavior
[1]; gradient dose i.v.
  dose dependence of inhibition of icilin-induced wet-dog shakes: dose-dependently significantly reduces; also recorded: significantly dose-dependent
